Source: patent EP2459551B1, “DIHYDROBENZOINDAZOLES” (Merck Sharp & Dohme B.V., priority 2009, dated 2011)

target: T1, human FSH receptor (Homo sapiens, UniProt P23945)
T1 sequence (P23945 18-695): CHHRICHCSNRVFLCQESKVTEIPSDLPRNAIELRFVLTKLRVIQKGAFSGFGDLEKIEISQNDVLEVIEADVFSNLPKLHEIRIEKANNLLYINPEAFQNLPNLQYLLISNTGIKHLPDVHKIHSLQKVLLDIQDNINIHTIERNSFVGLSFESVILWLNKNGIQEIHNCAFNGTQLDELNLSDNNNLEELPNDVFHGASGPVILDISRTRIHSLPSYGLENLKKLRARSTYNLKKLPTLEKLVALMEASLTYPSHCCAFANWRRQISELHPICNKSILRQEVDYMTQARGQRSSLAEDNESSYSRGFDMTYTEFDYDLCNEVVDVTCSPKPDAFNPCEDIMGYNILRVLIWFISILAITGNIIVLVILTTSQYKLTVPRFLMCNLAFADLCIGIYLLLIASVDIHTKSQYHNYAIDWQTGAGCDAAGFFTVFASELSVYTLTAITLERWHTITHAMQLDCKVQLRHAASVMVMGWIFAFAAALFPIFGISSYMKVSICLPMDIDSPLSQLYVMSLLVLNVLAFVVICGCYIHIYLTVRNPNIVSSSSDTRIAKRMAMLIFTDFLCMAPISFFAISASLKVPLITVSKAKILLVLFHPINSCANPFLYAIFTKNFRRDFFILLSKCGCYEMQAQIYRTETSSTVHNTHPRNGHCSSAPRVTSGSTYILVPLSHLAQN
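Further: CHO cells stably expressing human FSH receptor with CRE-driven firefly luciferase, luminescence read as counts per second after 4 h compound exposure in 1% DMSO.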
Method: Agonistic activity of compounds at the human FSH receptor expressed in CHO cells
Agonistic activity of the compounds at the human FSH receptor was determined in Chinese Hamster Ovary (CHO) cells stably transfected with the human FSH receptor and cotransfected with a cAMP responsive element (CRE)/promotor directing the expression of a firefly luciferase reporter gene. […] Cells (7,500 cells/well of a 384 well plate) were incubated in Dulbecco' minimal essential F12 modified medium (Invitrogen), supplemented with 1 µg/ml bovine insulin, 5 µg/ml human apotransferrin, 80 U/ml penicillin G and 80 µg/ml streptomycin with the test compounds (concentration between 0.0316 nM and 10.0 µM) in duplicate in a humidified atmosphere (95%) at 5-7% CO2 and 37°C. The final concentration of DMSO was 1%. After 4 hours of incubation, plates were allowed to adjust to room temperature for 1 hour. Then, Luclite (PerkinElmer) solution was added to the wells and cells were allowed to lyse for at least 1 hour at room temperature. Subsequently, luciferase activity was measured in a luminescence counter. The signal is expressed as counts per second (cps). The EC50 (concentration of the test compound that elicits half-maximal (50 %) luciferase stimulation compared to the compound's maximally attainable effect) and efficacy values (maximal effect of the test compound as percentage of the maximal effect of recombinant human FSH) of the compounds were determined using the software program MathIQ (version 2.0, ID Business Solutions Limited).

Row | EC50 | Structure (SMILES)
1 | 1000 to 10000 nM | COc1cc2c(cc1NC(=O)CN1CCOCC1)-c1c(c(C(=O)N(C)C(C)(C)C)nn1-c1cccc(C)c1)CC2 [Example 12jb, N-tert-butyl-7-methoxy-N-methyl-8-(2-morpholinoacetamido)-1-m-tolyl-4,5-dihydro-1H-benzo[g]indazole-3-carboxamide]
2 | 1000 to 10000 nM | COc1cc2c(cc1NC(=O)CN(C)C)-c1c(c(C(=O)N(C)C(C)(C)C)nn1-c1cccc(C)c1)CC2 [Example 12jc, N-tert-butyl-8-(2-(dimethylamino)acetamido)-7-methoxy-N-methyl-1-m-tolyl-4,5-dihydro-1H-benzo[g]indazole-3-carboxamide]
3 | 1000 to 10000 nM | COc1cc2c(cc1NC(=O)CN1CCC1)-c1c(c(C(=O)N(C)C(C)(C)C)nn1-c1cccc(C)c1)CC2 [Example 12jd, 8-(2-(azetidin-1-yl)acetamido)-N-tert-butyl-7-methoxy-N-methyl-1-m-tolyl-4,5-dihydro-1H-benzo[g]indazole-3-carboxamide]
4 | 1000 to 10000 nM | COc1cc2c(cc1OC(C)C)-c1c(c(C(=O)N(C)C(C)(C)C)nn1-c1ccc(C)cc1)CC2 [Example 13ca, N-tert-butyl-8-isopropoxy-7-methoxy-N-methyl-1-p-tolyl-4,5-dihydro-1H-benzo[g]indazole-3-carboxamide]
5 | 1000 to 10000 nM | CCc1ccc(-n2nc(C(=O)N(C)C(C)(C)C)c3c2-c2cc(OC(C)C)c(OC)cc2CC3)cc1 [Example 13cb, N-tert-butyl-1-(4-ethylphenyl)-8-isopropoxy-7-methoxy-N-methyl-4,5-dihydro-1H-benzo[g]lindazole-3-carboxamide]
6 | 100 to 1000 nM | COc1cc2c(cc1OC(C)C)-c1c(c(C(=O)N(C)C(C)(C)C)nn1-c1ccc(F)cc1)CC2 [Example 13cd, N-tert-butyl-1-(4-fluorophenyl)-8-isopropoxy-7-methoxy-N-methyl-4,5-dihydro-1H-benzo[g]indazole-3-carboxamide]
7 | 100 to 1000 nM | COc1cc2c(cc1OC(C)C)-c1c(c(C(=O)N(C)C(C)(C)C)nn1-c1ccc(Cl)cc1)CC2 [Example 13ce, N-tert-butyl-1-(4-chlorophenyl)-8-isopropoxy-7-methoxy-N-methyl-4,5-dihydro-1H-benzo[g]indazole-3-carboxamide]
8 | 1000 to 10000 nM | COc1cc2c(cc1OC(C)C)-c1c(c(C(=O)N(C)C(C)(C)C)nn1-c1ccc(Br)cc1)CC2 [Example 13cf, N-tert-butyl-1-(4-bromophenyl)-8-isopropoxy-7-methoxy-N-methyl-4,5-dihydro-1H-benzo[g]indazole-3-carboxamide]
9 | 1000 to 10000 nM | COc1cc2c(cc1OC)-c1c(c(C(=O)N3CCCN(C(C)=O)CC3)nn1-c1ccsc1)CC2 [Example 14e, 1-(4-(7,8-dimethoxy-1-(thiophen-3-yl)-4,5-dihydro-1H-benzo[g]indazole-3-carbonyl)-1,4-diazepan-1-yl)ethanone]

Row | Structure (SMILES) | EC50
10 | COc1ccc(-n2nc(C(=O)N(C)C(C)(C)C)c3c2-c2cc(OC(C)C)c(OC)cc2CC3)cc1 [Example 13cc, N-tert-butyl-8-isopropoxy-7-methoxy-1-(4-methoxyphenyl)-N-methyl-4,5-dihydro-1H-benzo[g]indazole-3-carboxamide] | 1000 to 10000 nM
